Like-named read-outs stand apart in the source and are kept apart here.
Assays:
[1] = test system: Mycobacterium tuberculosis strain EH4.0 expressing green-fluorescent protein (GFP); assay: microbe, parasite or virus in culture; assay type: cell-based; details: read-out: pIC50 (converted)

SMILES	IC50 ([1]; Test 1 (and/or Test 2)) [nM]	melting point [°C]	further results
CCc1nc2ccc(Cl)cn2c1C(=O)NCc1ccc(N2CCN(S(=O)(=O)C(F)(F)F)C=N2)c(OC)c1 [Compound 25]	10	125.56	
CCc1nc2ccc(CCCOC)cn2c1C(=O)NCc1ccc(N2CCN(S(=O)(=O)C(F)(F)F)C=N2)cc1 [Compound 63]		159.95	
CCc1nc2ncc(C(=O)NC)cn2c1C(=O)NCc1ccc(N2CCN(S(=O)(=O)C(F)(F)F)C=N2)cc1 [Compound 61]		193.44	
O=C(NCc1ccc(N2CCN(S(=O)(=O)C(F)(F)F)C=N2)cc1)c1c(C2CC2)nc2ncc(Cl)cn12 [Compound 7]		208.41	
CCc1nc2ccc(Cl)cn2c1C(=O)NCc1ccc(N2CCN(C(C)=O)C=N2)cc1 [Compound 18]		245.36	
CCc1nc2cc(C)c(C)cn2c1C(=O)NCc1ccc(N2CCN(S(=O)(=O)C(F)(F)F)C(C(C)C)=N2)cc1 [Compound 245]	13.8		
CCc1nc2ccc(C#N)cn2c1C(=O)NCc1ccc(N2CCN(S(=O)(=O)C(F)(F)F)C=N2)cc1 [Compound 72]		216.25	
CCC1=NN(c2ccc(CNC(=O)c3c(CC)nc4ccc(Cl)cn34)cc2)CCN1S(=O)(=O)C(F)(F)F [Compound 2]		178.31	
CCc1nc2cc(OC)c(Cl)cn2c1C(=O)NCc1ccc(N2CCN(S(=O)(=O)C(F)(F)F)C(OC)=N2)c(F)c1 [Compound 46]		176.82	
CCc1nc2ccc(C)cn2c1C(=O)NCc1cnc(N2CCN(S(=O)(=O)C(F)(F)F)C(C3CC3)=N2)c(F)c1 [Compound 232]	1.51		
CCc1nc2ccc(Cl)cn2c1C(=O)NCc1ccc(N2CCN(C)C(C)=N2)cc1 [Compound 59]		202.94	
CCc1nc2ncc(Cl)cn2c1C(=O)NCc1ccc(N2CCN(C(C)=O)C=N2)cc1 [Compound 24]		258.01	
CC1=NN(c2ccc(CNC(=O)c3c(C(F)(F)F)nc4ncccn34)cc2F)CCN1S(=O)(=O)C(F)(F)F [Compound 254]	53.7		
CCc1nc2c(F)cc(Cl)cn2c1C(=O)NCc1ccc(N2CCN(S(=O)(=O)C(F)(F)F)C(C(C)C)=N2)cc1 [Compound 244]	4.57		
CCc1nc2ccc(Cl)cn2c1C(=O)NCc1ccc(N2CCN(S(=O)(=O)C(F)(F)F)C=N2)cc1OC [Compound 22]		175.12	
CCc1nc2ccc(Cl)cn2c1C(=O)NCc1ccc(N2CCN(S(=O)(=O)CC(C)C)C=N2)cc1 [Compound 17]		196.82	
CCc1nc2ccc(Cl)cn2c1C(=O)NCc1ccc(N2CCN(S(=O)(=O)C(F)(F)F)C(CCOC)=N2)cc1 [Compound 55]		193.51	
CCc1nc2ncc(Cl)cn2c1C(=O)NCc1ccc(N2CCN(S(=O)(=O)C(F)(F)F)C(OC)=N2)cc1 [Compound 27]		174.88	
CCc1nc2cc(OC)ccn2c1C(=O)NCc1ccc(N2CCN(S(=O)(=O)C(F)(F)F)C(OC)=N2)c(F)c1 [Compound 75]		135.16	
CCc1nc2ncc(Cl)cn2c1C(=O)NCc1ccc(N2CCN(S(=O)(=O)CC(C)C)C=N2)cc1 [Compound 23]		207.21	
CCc1nc2ccc(N3CCCC3)cn2c1C(=O)NCc1ccc(N2CCN(S(=O)(=O)C(F)(F)F)C=N2)cc1 [Compound 65]		228.15	
CCc1nc2ccc(Cl)cn2c1C(=O)NCc1ccc(N2CCN(C=O)C=N2)cc1 [Compound 38]		255.93	

SMILES	IC50 ([1]; Test 1 (and/or Test 2)) [nM]	melting point [°C]	further results
CCc1nc2ccc(OC)cn2c1C(=O)NCc1ccc(N2CCN(S(=O)(=O)C(F)(F)F)C=N2)cc1 [Compound 42]		147.57	
CCc1nc2cc(OC)c(Cl)cn2c1C(=O)NCc1ccc(N2CCN(S(=O)(=O)C(F)(F)F)C=N2)cc1 [Compound 64]		193.79	
CCc1nc2n(c1C(=O)NCc1ccc(N3CCNC=N3)cc1)CCCC2 [Compound 57]		211.47	
CCc1nc2ccc(C)cn2c1C(=O)NCc1ccc(N2CCN(S(=O)(=O)C(F)(F)F)C(C3CC3)=N2)cc1 [Compound 229]	1.07		
Cc1cn2c(C(=O)NCc3ccc(N4CCN(S(=O)(=O)C(F)(F)F)C=N4)c(F)c3)c(C)nc2s1 [Compound 153]	1.78		
CCc1nc2ncc(F)cn2c1C(=O)NCc1ccc(N2CCN(S(=O)(=O)C(F)(F)F)C=N2)cc1 [Compound 10]		171.42	
CCc1nc2ccc(Cl)cn2c1C(=O)NCc1ccc(N2CCN(C)C=N2)cc1 [Compound 15]		206.66	
CCC1=NN(c2ncc(CNC(=O)c3c(C(F)(F)F)nc4ccccn34)cc2F)CCN1S(=O)(=O)C(F)(F)F [Compound 236]	6.17		
CCc1nc2ncc(COC)cn2c1C(=O)NCc1ccc(N2CCN(S(=O)(=O)C(F)(F)F)C=N2)cc1 [Compound 33]		225.92	
CCc1nc2ccc(Cl)cn2c1C(=O)NCc1ccc(N2CCN(S(=O)(=O)CCOC)C=N2)cc1 [Compound 19]		196.34	
O=C(NCc1ccc(N2CCN(S(=O)(=O)C(F)(F)F)C=N2)c(F)c1)c1c(C(F)F)nc2n1CCCC2 [Compound 147]	3.8		
CCc1nc2c(Cl)c(OC)ccn2c1C(=O)NCc1ccc(N2CCN(S(=O)(=O)C(F)(F)F)C=N2)cc1 [Compound 39]		211.19	
CCc1nc2ccc(Cl)cn2c1C(=O)NCc1ccc(N2CCNC=N2)cc1 [Compound 56]		236.36	
CCc1nc2cc(Cl)c(OC)cn2c1C(=O)NCc1ccc(N2CCN(S(=O)(=O)C(F)(F)F)C(OC)=N2)cc1 [Compound 45]		155.29	
COc1ccn2nc(C)c(C(=O)NCc3ccc(N4CCN(S(=O)(=O)C(F)(F)F)C=N4)cc3)c2c1 [Compound 14]		192.27	
CCc1nc2ccc(Cl)cn2c1C(=O)NCc1ccc(N2CCN(S(=O)(=O)C(F)(F)F)C(C3CC3)=N2)cc1 [Compound 230]	6.61		
CCc1nc2sc(Cl)cn2c1C(=O)NCc1ccc(N2CCN(S(=O)(=O)C(F)(F)F)C=N2)c(F)c1 [Compound 135]	7.24		
CCc1nc2ccc(OC)cn2c1C(=O)NCc1ccc(N2CCN(S(=O)(=O)C(F)(F)F)C(OC)=N2)c(F)c1 [Compound 48]		74.6	
CCc1nc2ccc(Cl)cn2c1C(=O)NCc1ccc(N2CCN(S(=O)(=O)C(F)(F)F)C(C)=N2)cc1 [Compound 21]		157.49	
CCc1nc2ccc(F)cn2c1C(=O)NCc1ccc(N2CCN(S(=O)(=O)C(F)(F)F)C(C3CC3)=N2)cc1 [Compound 227]	11.5		
CCc1nc2cc(OC)ccn2c1C(=O)NCc1ccc(N2CCN(S(=O)(=O)C(F)(F)F)C=N2)cc1 [Compound 51]		185.08	
COC1=NN(c2ccc(CNC(=O)c3nnc4ccc(Cl)cn34)cc2F)CCN1S(=O)(=O)C(F)(F)F [Compound 92]			IC50 [1]: 53.7 nM

SMILES	IC50 ([1]; Test 1 (and/or Test 2)) [nM]	melting point [°C]	further results
CCc1nc2ccc(C)cn2c1C(=O)NCc1ccc(N2CCN(S(=O)(=O)C(F)(F)F)C(C3CCC3)=N2)cc1 [Compound 237]	5.75		
CCc1nc2ccc(Cl)cn2c1C(=O)NCc1ccc(N2CCN(c3nccs3)C=N2)cc1 [Compound 76]		232.4	
CCc1nc2ncc(C)cn2c1C(=O)NCc1ccc(N2CCN(S(=O)(=O)C(F)(F)F)C(C)=N2)cc1 [Compound 250]	1.58		
CCc1nc2ccc(Cl)cn2c1C(=O)NCc1ccc(N2CCN(Cc3nc(C(F)(F)F)cs3)C=N2)cc1 [Compound 69]		163.46	
CCc1nc2ccc(Cl)cn2c1C(=O)NCc1ccc(N2CCN(C(=O)C(F)(F)F)C=N2)cc1 [Compound 66]		211.3	
CCc1nc2cccc(Cl)n2c1C(=O)NCc1ccc(N2CCN(S(=O)(=O)C(F)(F)F)C(OC)=N2)cc1 [Compound 70]		138.71	
CCc1nc2ccc(Cl)cn2c1C(=O)NCc1cc(F)c(N2CCN(S(=O)(=O)C(F)(F)F)C=N2)c(F)c1 [Compound 35]		152.93	
CCc1nc2n(c1C(=O)NCc1ccc(N3CCN(S(=O)(=O)C(F)(F)F)C=N3)cc1)CCCC2 [Compound 3]		189.22	
Cc1cnc2nc(C(F)F)c(C(=O)NCc3ccc(N4CCN(S(=O)(=O)C(F)(F)F)C(C(C)C)=N4)c(F)c3)n2c1 [Compound 249]	1.86		
COC1=NN(c2ccc(CNC(=O)c3nnc4ccc(Br)cn34)cc2F)CCN1S(=O)(=O)C(F)(F)F [Compound 94]			IC50 [1]: 38.9 nM
CC(C)C1=NN(c2ccc(CNC(=O)c3c(C(F)(F)F)nc4n3CCCC4)cc2F)CCN1S(=O)(=O)C(F)(F)F [Compound 239]	8.91		
Cc1ccc2nc(C(F)(F)F)c(C(=O)NCc3ccc(N4CCN(S(=O)(=O)C(F)(F)F)C=N4)c(F)c3)n2c1 [Compound 175]	1.58		
CC1=NN(c2ncc(CNC(=O)c3c(C(F)(F)F)nc4ccccn34)cc2F)CCN1S(=O)(=O)C(F)(F)F [Compound 256]	18.6		
CCc1nc2cc(Cl)c(OC)cn2c1C(=O)NCc1ccc(N2CCN(S(=O)(=O)C(F)(F)F)C=N2)cc1 [Compound 67]		206.99	
CCc1nc2c(C)cc(C)cn2c1C(=O)NCc1ccc(N2CCN(S(=O)(=O)C(F)(F)F)C=N2)c(F)c1 [Compound 95]			IC50 [1]: 38 nM
CCc1nc2ccc(Cl)cn2c1C(=O)NCc1ccc(N2CCN(S(=O)(=O)C(F)(F)F)C(OC)=N2)c(F)c1 [Compound 37]		193.36	
O=C(NCc1ccc(N2CCN(S(=O)(=O)C(F)(F)F)C=N2)c(F)c1)c1c(C(F)(F)F)nc2ccc(Cl)cn12 [Compound 124]	10		
CCc1nc2cc(OC)ccn2c1C(=O)NCc1ccc(N2CCN(S(=O)(=O)C(F)(F)F)C(OC)=N2)cc1 [Compound 52]		164.28	
CCc1nc2nc3c(cn2c1C(=O)NCc1ccc(N2CCN(S(=O)(=O)C(F)(F)F)C=N2)c(F)c1)CCC3 [Compound 154]	1.7		
CCc1nc2ccc(C)cn2c1C(=O)NCc1cnc(N2CCN(S(=O)(=O)C(F)(F)F)C(C(C)C)=N2)c(F)c1 [Compound 246]	2.63		
CCc1nc2n(c1C(=O)NCc1ccc(N3CCN(S(=O)(=O)C(F)(F)F)C(C(C)C)=N3)c(F)c1)CCCC2 [Compound 242]	2.4		
CCc1nc2ncc(C)cn2c1C(=O)NCc1ccc(N2CCN(S(=O)(=O)C(F)(F)F)C(C3CC3)=N2)cc1 [Compound 228]	1.45		

From patent US20240199611A1, “ANTIBACTERIAL COMPOUNDS” (JANSSEN SCIENCES IRELAND UNLIMITED COMPANY, priority 2021, published 2024)
